These results are taken from ChEMBL document CHEMBL1130228, “Potent and selective 1,2,3-trisubstituted indole NPY Y-1 antagonists” (J Med Chem, 1997).

Where only a bound is given, the exact number is not on record here.

Broadly, the Ki is the equilibrium dissociation constant of an inhibitor or competing ligand from its target. Low values mean higher affinity, high ones lower affinity.

For assay [1], the target named is T1, Neuropeptide Y receptor type 5 (Homo sapiens, UniProt Q15761).
T1 sequence (Q15761 whole entry): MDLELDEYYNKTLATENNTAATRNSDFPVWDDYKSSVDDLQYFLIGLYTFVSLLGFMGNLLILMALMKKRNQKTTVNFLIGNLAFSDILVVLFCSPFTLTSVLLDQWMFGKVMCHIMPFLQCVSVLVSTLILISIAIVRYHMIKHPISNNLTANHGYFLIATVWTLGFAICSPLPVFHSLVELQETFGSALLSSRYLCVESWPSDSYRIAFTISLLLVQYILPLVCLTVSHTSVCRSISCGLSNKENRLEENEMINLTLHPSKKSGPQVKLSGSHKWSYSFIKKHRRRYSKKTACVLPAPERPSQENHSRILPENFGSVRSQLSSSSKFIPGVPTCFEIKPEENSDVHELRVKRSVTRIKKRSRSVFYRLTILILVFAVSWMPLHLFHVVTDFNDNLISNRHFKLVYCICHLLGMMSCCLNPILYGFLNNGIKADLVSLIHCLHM
As to the kind of experiment: Affinity for human Neuropeptide Y receptor type 5.

Assay [2] concerns the target Neuropeptide Y receptor type 4 (Homo sapiens, UniProt P50391). In words: Affinity for human Neuropeptide Y receptor type 4.
The target of assay [3] is T2, Neuropeptide Y receptor type 1 (Homo sapiens, UniProt P25929).
T2 sequence (P25929 whole entry): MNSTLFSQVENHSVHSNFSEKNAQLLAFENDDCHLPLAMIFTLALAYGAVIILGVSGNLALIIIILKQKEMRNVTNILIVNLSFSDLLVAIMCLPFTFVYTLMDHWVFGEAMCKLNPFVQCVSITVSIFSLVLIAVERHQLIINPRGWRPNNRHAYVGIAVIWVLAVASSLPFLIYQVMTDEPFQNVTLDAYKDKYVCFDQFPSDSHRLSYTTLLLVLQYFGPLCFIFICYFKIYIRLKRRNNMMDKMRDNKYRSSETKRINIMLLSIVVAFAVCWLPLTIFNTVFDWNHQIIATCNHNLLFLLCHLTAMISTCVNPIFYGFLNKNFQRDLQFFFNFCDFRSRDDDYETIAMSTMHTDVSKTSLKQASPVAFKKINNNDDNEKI
In words: Binding affinity for Neuropeptide Y receptor type 1 expressed in AV-12 cells. The class given is cell-based, AV12.

Assay [4] addresses T3, Neuropeptide Y receptor type 2 (Homo sapiens, UniProt P49146).
T3 sequence (P49146 whole entry): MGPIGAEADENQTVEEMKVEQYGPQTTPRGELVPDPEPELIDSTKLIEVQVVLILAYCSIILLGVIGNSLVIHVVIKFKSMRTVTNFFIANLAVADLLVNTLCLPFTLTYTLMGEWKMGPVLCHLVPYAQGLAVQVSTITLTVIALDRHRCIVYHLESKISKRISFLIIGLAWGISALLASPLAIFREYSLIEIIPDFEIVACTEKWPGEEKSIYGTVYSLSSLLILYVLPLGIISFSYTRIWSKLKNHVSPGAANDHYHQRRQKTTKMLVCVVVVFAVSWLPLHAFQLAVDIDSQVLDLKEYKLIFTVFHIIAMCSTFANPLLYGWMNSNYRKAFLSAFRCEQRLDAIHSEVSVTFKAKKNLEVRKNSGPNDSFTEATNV
In words: Affinity for human Neuropeptide Y receptor type 2.

The next assay relates to Mus musculus. As to the kind of experiment: Ability to block increase in food consumption elicited by NPY (230 pmol, icv) into lateral ventricle of mice. The class given is functional.
The next assay relates to SK-N-MC. As to the kind of experiment: Ability to reverse NPY-induced intracellular [Ca2+] mobilization in SK-N-MC cells. It counts as functional, cell-based, Homo sapiens.
Assay [5] deals with T2, Neuropeptide Y receptor type 1. As to the kind of experiment: Ability to reverse Neuropeptide Y receptor type 1-induced inhibition of forskolin-induced inhibition of forskolin-stimulated cAMP. It counts as functional.

Neuropeptide Y receptor type 4, sequence (P50391 whole entry): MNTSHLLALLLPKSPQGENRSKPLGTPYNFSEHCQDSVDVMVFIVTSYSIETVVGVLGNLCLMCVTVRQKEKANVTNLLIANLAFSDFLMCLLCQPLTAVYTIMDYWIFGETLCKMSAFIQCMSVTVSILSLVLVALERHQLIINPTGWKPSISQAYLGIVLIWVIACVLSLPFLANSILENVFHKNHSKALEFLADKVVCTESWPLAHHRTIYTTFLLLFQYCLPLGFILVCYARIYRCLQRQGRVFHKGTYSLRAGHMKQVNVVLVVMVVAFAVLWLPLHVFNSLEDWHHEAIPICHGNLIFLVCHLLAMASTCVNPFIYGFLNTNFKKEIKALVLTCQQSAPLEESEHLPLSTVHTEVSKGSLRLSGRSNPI

As to `Clc1ccc(OCc2c(CN3CCC(N4CCCCC4)CC3)c3ccccc3n2CCN2CCCCC2)cc1`, the Ki in assay [1] was more than 10 µM; in assay [2] it was more than 10 µM; in assay [3], 98 nM; in assay [4], more than 10 µM.

`Cn1c(COc2ccc(Cl)cc2)c(CCN2CCCCC2)c2ccccc21`: the Ki in assay [1] was more than 10 µM; in assay [2] it was more than 10 µM; in assay [3], 2880 nM; in assay [4], more than 10 µM.

As for `Cn1c(COc2ccc(Cl)cc2)c(CCN2CCC(N3CCCCC3)CC2)c2ccccc21`, the Ki is more than 10 µM in assay [1], more than 10 µM in assay [2], 93 nM in assay [3] and more than 10 µM in assay [4].

Consider `Cn1c(COc2ccc(Cl)cc2Cl)c(CN2CCCCC2)c2ccccc21`, for which the Ki was more than 10 µM in assay [1], more than 10 µM in assay [2], 1260 nM in assay [3] and more than 10 µM in assay [4].

On to `Cn1c(COc2ccc(Cl)cc2)c(CN2CCC(N3CCCCC3)CC2)c2ccccc21`, for which the Ki in assay [1] was more than 10 µM; in assay [2], more than 10 µM; in assay [3], 559 nM; in assay [4], more than 10 µM.

On to `Cn1c(COc2ccc(Cl)cc2)c(C(=O)CN2CCC(N3CCCCC3)CC2)c2ccccc21`, for which the Ki is more than 10 µM in assay [1], more than 10 µM in assay [2], 26 nM in assay [3] and more than 10 µM in assay [4].

As to `O=C(CN1CCC(N2CCCCC2)CC1)c1c(COc2ccc(Cl)cc2)n(CCC[C@@H]2CCCNC2)c2ccccc12`, in the assay on Mus musculus, the ED50 is reported as 17 nM. For the same compound, the Ki was more than 10 µM in assay [1]; 3.2 nM in the assay with SK-N-MC; more than 10 µM in assay [2]; 0.75 nM in assay [3]; more than 10 µM in assay [4]; 1.8 nM in assay [5].

Take `Cn1c(COc2ccc(Cl)cc2)c(C(=O)C(=O)N2CCC(N3CCCCC3)CC2)c2ccccc21`: the Ki is more than 10 µM in assay [1], more than 10 µM in assay [2], 440 nM in assay [3] and more than 10 µM in assay [4].

Consider `O=C(CN1CCC(N2CCCCC2)CC1)c1c(COc2ccc(Cl)cc2)n(CCC[C@H]2CCCNC2)c2ccccc12`, for which the Ki in assay [1] is more than 10 µM; in assay [2], more than 10 µM; in assay [3], 1.4 nM; in assay [4] it was more than 10 µM.

`N=C(N)NCCC[C@@H](NC(=O)C(c1ccccc1)c1ccccc1)C(=O)NCc1ccc(O)cc1`: the Ki in assay [1], in assay [2] and in assay [4] was more than 10 µM in each case.

Take `O=C(CN1CCC(N2CCCCC2)CC1)c1c(COc2ccc(Cl)cc2)n(CCC2CCNCC2)c2ccccc12`: the Ki is more than 10 µM in assay [1], more than 10 µM in assay [2], 1.9 nM in assay [3] and more than 10 µM in assay [4].

As to `Cn1c(COc2ccc(Cl)cc2)c(CN2CCCCC2)c2ccccc21`, the Ki in assay [1] is more than 10 µM; in assay [2], more than 10 µM; in assay [3], 2320 nM; in assay [4] it was more than 10 µM.
